From publication PMC10818931, “In Vitro Evaluation of Drug–Drug Interaction Potential of Epetraborole, a Novel Bacterial Leucyl-tRNA Synthetase Inhibitor” (Pharmaceuticals, 2024)

Assays:
Experiment in all cases: Uptake transporter inhibition in transfected HEK 293 or MDCK cells
Type in all cases: in vitro ADME
OCT2 = molecular target: T1, OCT2 (Homo sapiens, UniProt O15244)
T1 construct: host or cells: MDCK
T1 sequence (O15244 1-555): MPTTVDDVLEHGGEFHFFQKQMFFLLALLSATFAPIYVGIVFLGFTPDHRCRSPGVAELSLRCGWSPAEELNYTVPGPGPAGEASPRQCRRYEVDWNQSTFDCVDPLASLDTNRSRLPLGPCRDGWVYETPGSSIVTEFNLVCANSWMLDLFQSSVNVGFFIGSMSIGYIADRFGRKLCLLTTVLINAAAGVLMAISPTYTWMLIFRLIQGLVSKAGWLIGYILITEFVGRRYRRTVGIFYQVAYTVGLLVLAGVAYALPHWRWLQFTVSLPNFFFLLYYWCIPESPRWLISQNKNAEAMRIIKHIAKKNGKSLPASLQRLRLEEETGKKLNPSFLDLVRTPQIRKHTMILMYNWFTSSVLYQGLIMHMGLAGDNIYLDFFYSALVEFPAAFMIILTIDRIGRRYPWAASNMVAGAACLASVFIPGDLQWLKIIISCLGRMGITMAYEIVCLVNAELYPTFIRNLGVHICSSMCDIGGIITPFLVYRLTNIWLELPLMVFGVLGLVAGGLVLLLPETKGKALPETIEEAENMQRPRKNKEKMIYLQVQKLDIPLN
Description: (§1) Cell monolayers were preincubated (37 °C) for 15 to 30 min in a transport medium containing the target concentration of EBO or a specific inhibitor without substrate. Following the removal of preincubation solutions, appropriate working solutions containing EBO at the target concentration plus the probe substrate were added to the wells in triplicate. Separate sets of triplicate wells were designated for probe substrate only and probe substrate plus the specific inhibitors, to determine the maximal uptake rate and maximal inhibition of uptake, respectively. After incubation at 37 °C for each transporter, the working solution was removed from each well and the experiment was stopped by washing three times with cold (4 °C) DPBS. Depending on the substrate label, cells were either lysed for the analysis of total radioactivity (liquid scintillation counter) or LC-MS/MS methods. For measuring relative fluorescence (FLUOstar Galaxy, Cary, NC, USA), cells were not lysed.

OAT1 = molecular target: T2, OAT1 (Homo sapiens, UniProt Q4U2R8); conditions: read-out: as an Inhibitor, IC50
T2 construct: host or cells: MDCK
T2 sequence (Q4U2R8 1-563): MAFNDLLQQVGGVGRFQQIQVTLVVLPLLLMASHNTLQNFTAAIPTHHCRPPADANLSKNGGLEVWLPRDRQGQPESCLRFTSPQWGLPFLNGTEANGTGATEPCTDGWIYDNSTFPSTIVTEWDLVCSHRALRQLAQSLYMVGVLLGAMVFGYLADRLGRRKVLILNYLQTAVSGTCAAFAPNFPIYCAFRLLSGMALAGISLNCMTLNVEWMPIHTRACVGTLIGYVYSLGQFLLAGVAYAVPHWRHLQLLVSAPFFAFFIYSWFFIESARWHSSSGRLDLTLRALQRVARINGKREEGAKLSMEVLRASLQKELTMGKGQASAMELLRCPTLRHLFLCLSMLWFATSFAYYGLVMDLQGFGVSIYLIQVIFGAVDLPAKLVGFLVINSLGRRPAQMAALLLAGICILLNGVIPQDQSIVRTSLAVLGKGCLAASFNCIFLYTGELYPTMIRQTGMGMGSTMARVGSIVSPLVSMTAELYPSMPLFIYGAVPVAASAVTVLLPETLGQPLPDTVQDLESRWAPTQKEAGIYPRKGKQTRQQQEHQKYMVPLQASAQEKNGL
Description: as §1

OAT3 = molecular target: T3, OAT3 (Homo sapiens, UniProt Q8TCC7); conditions: for Inhibition (in words): concentrations up to 1000 μM; for IC50: read-out: as an Inhibitor, IC50
T3 construct: host or cells: MDCK
T3 sequence (Q8TCC7 1-542): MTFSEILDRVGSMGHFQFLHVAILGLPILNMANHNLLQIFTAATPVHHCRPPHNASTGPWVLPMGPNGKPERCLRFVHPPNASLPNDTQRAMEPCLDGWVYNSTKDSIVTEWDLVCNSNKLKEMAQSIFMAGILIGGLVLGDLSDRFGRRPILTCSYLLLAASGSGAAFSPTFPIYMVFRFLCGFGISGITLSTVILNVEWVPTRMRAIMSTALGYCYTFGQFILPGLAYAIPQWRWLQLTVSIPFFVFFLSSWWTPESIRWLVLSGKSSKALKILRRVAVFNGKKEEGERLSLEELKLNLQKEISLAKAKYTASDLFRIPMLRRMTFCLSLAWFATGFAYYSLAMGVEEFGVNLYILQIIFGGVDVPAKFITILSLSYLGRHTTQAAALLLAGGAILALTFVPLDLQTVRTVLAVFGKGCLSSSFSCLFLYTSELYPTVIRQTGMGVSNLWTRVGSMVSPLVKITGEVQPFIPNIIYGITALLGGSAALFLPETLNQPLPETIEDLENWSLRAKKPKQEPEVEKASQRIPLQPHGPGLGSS
Description: as §1

OATP1B1 = molecular target: T4, OATP1B1 (Homo sapiens, UniProt Q9Y6L6)
T4 construct: host or cells: MDCK
T4 sequence (Q9Y6L6 1-691): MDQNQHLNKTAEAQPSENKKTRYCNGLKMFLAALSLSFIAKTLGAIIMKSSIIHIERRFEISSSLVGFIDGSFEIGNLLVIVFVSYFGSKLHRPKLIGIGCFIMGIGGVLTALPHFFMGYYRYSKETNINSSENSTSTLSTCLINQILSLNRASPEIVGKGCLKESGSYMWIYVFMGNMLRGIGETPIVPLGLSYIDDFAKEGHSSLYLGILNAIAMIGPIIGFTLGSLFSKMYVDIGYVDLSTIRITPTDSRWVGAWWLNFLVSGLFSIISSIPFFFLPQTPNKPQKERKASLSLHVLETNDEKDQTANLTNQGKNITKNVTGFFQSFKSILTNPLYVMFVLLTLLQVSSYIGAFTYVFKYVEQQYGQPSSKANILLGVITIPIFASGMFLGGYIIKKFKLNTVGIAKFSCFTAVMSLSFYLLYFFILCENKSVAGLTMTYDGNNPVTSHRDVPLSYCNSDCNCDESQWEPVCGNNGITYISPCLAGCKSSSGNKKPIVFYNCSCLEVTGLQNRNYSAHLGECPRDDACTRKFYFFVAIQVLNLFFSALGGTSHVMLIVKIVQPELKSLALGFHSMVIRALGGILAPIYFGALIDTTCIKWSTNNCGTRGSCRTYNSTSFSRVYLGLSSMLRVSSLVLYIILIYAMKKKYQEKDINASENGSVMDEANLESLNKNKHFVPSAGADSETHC
Description: as §1

OCT1 = molecular target: T5, OCT1 (Homo sapiens, UniProt O15245)
T5 construct: expressed in transfected cells; host or cells: HEK 293 or MDCK
Description: as §1

[1] = read-out: as an Inhibitor, IC50

T5 sequence (O15245 whole entry): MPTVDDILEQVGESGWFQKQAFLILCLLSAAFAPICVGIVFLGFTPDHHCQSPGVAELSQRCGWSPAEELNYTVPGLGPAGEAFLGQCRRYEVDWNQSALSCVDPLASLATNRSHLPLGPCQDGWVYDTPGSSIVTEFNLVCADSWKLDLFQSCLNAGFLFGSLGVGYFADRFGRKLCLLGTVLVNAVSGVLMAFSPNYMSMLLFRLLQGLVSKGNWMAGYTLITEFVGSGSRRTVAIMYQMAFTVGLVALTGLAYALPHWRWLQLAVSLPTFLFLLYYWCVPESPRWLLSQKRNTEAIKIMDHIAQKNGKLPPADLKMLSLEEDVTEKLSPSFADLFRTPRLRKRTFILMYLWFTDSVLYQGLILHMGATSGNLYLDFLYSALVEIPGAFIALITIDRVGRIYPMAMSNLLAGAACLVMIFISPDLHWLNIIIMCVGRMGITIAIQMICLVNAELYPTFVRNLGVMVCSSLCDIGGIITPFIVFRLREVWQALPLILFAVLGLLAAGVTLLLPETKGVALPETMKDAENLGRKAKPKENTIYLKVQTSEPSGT

Compound	inhibition at 1000 µM (OCT2; human, probe metformin, metformin transport, at 1000 µM (maximum tested)) [%]	IC50 (OAT1) [µM]	Inhibition (in words) (OAT3)	IC50 (OAT3) [µM]	inhibition at 500 µM (OATP1B1; human, HEK 293 or MDCK cells transfected with OATP1B1, at 500 µM) [%]	inhibition at 1000 µM (OCT1; human, HEK 293 or MDCK cells transfected with OCT1, probe metformin, metformin transport, at 1000 µM (maximum tested)) [%]	IC50 (OCT2; [1]) [µM]	IC50 (OATP1B1; [1]) [µM]	IC50 (OCT1; [1]) [µM]
NC[C@H]1OB(O)c2c(OCCCO)cccc21 [EBO, Epetraborole]	20	> 1000	did not inhibit	> 1000	25	59			
NC[C@H]1OB(O)c2c(OCCC(=O)O)cccc21 [M3]		> 250	did not inhibit	> 1000			> 250	> 250	> 250
